From patent publication US10689429B2, “Double-acylated GLP-1 compounds” (Novo Nordisk A/S, priority 2014, dated 2020)
Like-named read-outs stand apart in the source and are kept apart here.

Assays:
[1] = molecular target: T1, human GLP-1 receptor (Homo sapiens, UniProt P43220); assay: In vitro potency, CRE luciferase reporter gene assay in BHK cells expressing the human GLP-1 receptor; format: cell-based; details: average of duplicates;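 further: firefly luciferase luminescence read after 3 h incubation at 37 °C, compounds tested in an eight-point series from 0.01 pM to 100 nM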
T1 construct: expressed in transfected cells; host or cells: membranes from BHK cells, parent line BHKTS13, clone FCW467-12A
Target sequence in this assay (P43220 24-463): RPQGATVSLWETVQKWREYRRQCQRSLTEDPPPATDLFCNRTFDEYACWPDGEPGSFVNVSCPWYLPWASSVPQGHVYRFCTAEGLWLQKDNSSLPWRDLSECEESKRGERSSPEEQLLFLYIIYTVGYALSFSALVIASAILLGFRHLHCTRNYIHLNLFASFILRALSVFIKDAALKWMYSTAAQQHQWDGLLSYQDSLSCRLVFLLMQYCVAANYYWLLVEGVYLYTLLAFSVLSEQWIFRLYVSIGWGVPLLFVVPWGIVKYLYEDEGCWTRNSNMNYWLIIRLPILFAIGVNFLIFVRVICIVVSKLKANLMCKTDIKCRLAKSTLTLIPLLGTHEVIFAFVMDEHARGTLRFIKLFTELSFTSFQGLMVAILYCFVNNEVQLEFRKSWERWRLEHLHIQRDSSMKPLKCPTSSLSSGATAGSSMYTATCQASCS
Protocol: The in vitro potency is the measure of human GLP-1 receptor activation in a whole cell assay.
In vitro potency was determined by measuring the response of the human GLP-1 receptor in a reporter gene assay. The assay was performed in a stably transfected BHK cell line that expresses the human GLP-1 receptor and contains the DNA for the cAMP response element (CRE) coupled to a promoter and the gene for firefly luciferase (CRE luciferase). When the human GLP-1 receptor is activated it results in the production of cAMP, which in turn results in the luciferase protein being expressed. When assay incubation is completed the luciferase substrate (luciferin) is added and the enzyme converts luciferin to oxyluciferin to produce bioluminescence. The luminescence is measured as the readout for the assay.
An increase of the in vitro potency, EC50 value, in the presence of serum albumin would indicate an affinity to serum albumin and represents a method to predict a protracted pharmacokinetic profile of the test substance in animal models.
The cells were cultured at 5% CO2 in Cell Culture Medium. They were aliquoted and stored in liquid nitrogen. Before each assay an aliquot is taken up and washed twice in PBS before being suspended at the desired concentration in the assay specific buffer. For 96-well plates the suspension was made to give a final concentration of 5×10^3 cells/well.
Assay Medium consisted of DMEM w/o phenol red, 10 mM Hepes and 1× Glutamax. The 1% Assay Buffer consisted of 2% ovalbumin, 0.2% Pluronic F-68 and 2% HSA in Assay Medium. The 0% Assay Buffer consisted of 2% ovalbumin and 0.2% Pluronic F-68 in Assay Medium.
1) Cell stocks were thawed in a 37° C. water bath.
2) Cells were washed three times in PBS.
3) The cells were counted and adjusted to 5×10^3 cells/50 μl (1×10^5 cells/ml) in Assay Medium. A 50 μl aliquot of cells was transferred to each well in the assay plate.
4) Stocks of the test compounds and reference compounds were diluted to a concentration of 0.2 pM in 0% Assay Buffer for the 0% HSA CRE luciferase assay and 1% Assay Buffer for the 1% HSA CRE luciferase assay. […] Compounds were tested at the following final concentrations: 1×10^−7 M, 1×10^−8 M; 1×10^−9 M, 1×10^−10 M, 1×10^−11 M, 1×10^−12 M, 1×10^−13 M, and 1×10^−14 M. 6) The assay plate was incubated for 3 h in a 5% CO2 incubator at 37° C. […] 8) A 100 μl aliquot of steadylite plus reagent was added to each well of the assay plate (reagent was light sensitive). 9) Each assay plate was covered with aluminum foil to protect it from light and shaken for 30 min at room temperature. 10) Each assay plate was read in a Packard TopCount NXT instrument. Calculations and Results
The data from the TopCount instrument were transferred to GraphPad Prism software. The software performs a non-linear regression (log(agonist) vs response).
A minimum of two replicates was measured for each sample on separate assay plates. The reported values are averages of the duplicates. For some examples more than one assay was run and in this case the data reported are the averages of the averaged duplicates.

[2] = molecular target: T1, human GLP-1 receptor; assay: GLP-1 receptor binding, competitive 125I-GLP-1 SPA binding assay on isolated membranes; details: low HSA (max. 0.001% final assay concentration)
[3] = Pharmacokinetic study in mini pigs after i.v. administration; format: in vivo; details: female, Göttingen, pig, plasma, iv, 2 nmol/kg; read-out: Minipig iv PK, t½ (converted)
Protocol: The purpose of this study is to determine the protraction in vivo of the GLP-1 derivatives after i.v. administration to mini pigs, i.e. the prolongation of their time in the body and thereby their time of action. This was done in pharmacokinetic (PK) studies, where the terminal half-life of the derivative in question was determined. By terminal half-life is generally meant the period of time it takes to halve a certain plasma concentration, measured after the initial distribution phase.
Female Göttingen mini pigs obtained from Ellegaard Göttingen Minipigs (Dalmose, Denmark) at approximately 5 months of age and weighing approximately 10 kg were used in the studies. The mini pigs were housed in pens with straw as bedding, four to six together in each pen and fed restrictedly once or twice daily with Altromin 9023 mini pig diet (Chr. Petersen A/S, DK-4100 Ringsted). The pigs were used for repeated pharmacokinetic studies with a suitable wash-out period between successive GLP-1 derivative dosings. An acclimatisation period of 1 week was allowed during which time the mini pigs were trained to be fixated on the back for blood sampling and in slings for i.v. dosing. All handling, dosing and blood sampling of the animals was performed by trained and skilled staff.
The GLP-1 derivatives were dissolved in 50 mM sodium phosphate, 70 mM sodium chloride, 0.05% tween 80, pH 7.4 to a concentration of approximately 20 nmol/ml. Intravenous injections (the volume corresponding to usually 2 nmol/kg, for example 0.1 ml/kg) of the compounds were given as intravenous injections via a Venflon inserted in an ear vein, while the animals were placed un-anaesthetised in a sling. The dose volume was 0.1 ml/kg, and blood was sampled at predefined time points for up till 13 days post dosing (samples were taken with a syringe from a jugular vein). Blood samples (for example 0.8 ml) were collected in EDTA buffer (8 mM) and then centrifuged at 4° C. and 2000 G for 10 minutes.
Individual plasma concentration-time profiles were analysed by a non-compartmental model in WinNonlin v. […] 6.2 or 6.3 (Pharsight Inc., Mountain View, Calif., USA), or other relevant software for PK analysis, and the resulting terminal half-lives determined.

[4] = 0% HSA, read-out: EC50/pM (0% HSA)
[5] = EC50/pM (1% HSA), 1% HSA final assay concentration

Row | SMILES | EC50 [1, 4] [pM] | EC50 [1, 5] [pM] | IC50 ([2]; read-out: IC50/nM (low HSA)) [nM] | half-life [3] [days] | EC50 ([1]; EC50/pM (0% HSA), 0% HSA) [pM] | IC50 ([2]; IC50/nM (low HSA)) [nM]
1 | CC[C@H](C)[C@H](NC(=O)[C@H](Cc1ccccc1)NC(=O)[C@H](CCC(=O)O)NC(=O)[C@H](CCCNC(=N)N)NC(=O)[C@H](C)NC(=O)[C@H](C)NC(=O)[C@H](CCC(N)=O)NC(=O)[C@H](CCC(=O)O)NC(=O)[C@H](CCC(=O)O)NC(=O)[C@H](CC(C)C)NC(=O)[C@H](Cc1ccc(O)cc1)NC(=O)[C@H](CO)NC(=O)[C@H](CO)NC(=O)[C@@H](NC(=O)[C@H](CC(=O)O)NC(=O)[C@H](CO)NC(=O)[C@@H](NC(=O)[C@H](Cc1ccccc1)NC(=O)[C@@H](NC(=O)CNC(=O)[C@H](CCC(=O)O)NC(=O)C(C)(C)NC(=O)[C@@H](N)Cc1c[nH]cn1)[C@@H](C)O)[C@@H](C)O)C(C)C)C(=O)N[C@@H](C)C(=O)N[C@@H](Cc1c[nH]c2ccccc12)C(=O)N[C@@H](CC(C)C)C(=O)N[C@H](C(=O)N[C@@H](CCCNC(=N)N)C(=O)NCC(=O)N[C@@H](CCCCNC(=O)COCCOCCNC(=O)CC[C@H](NC(=O)CC[C@H](NC(=O)CCCCCCCCCCCCC(=O)O)C(=O)O)C(=O)O)C(=O)N[C@@H](CCCCNC(=O)COCCOCCNC(=O)CC[C@H](NC(=O)CC[C@H](NC(=O)CCCCCCCCCCCCC(=O)O)C(=O)O)C(=O)O)C(=O)O)C(C)C [Example 13, N{Epsilon-36}-[2-[2-[2-[[(4S)-4-carboxy-4-[[(4S)-4-carboxy-4-(13-carboxytridecanoylamino)butanoyl]amino]butanoyl]amino]ethoxy]ethoxy]acetyl], N{Epsilon-37}-[2-[2-[2-[[(4S)-4-carboxy-4-[[(4S)-4-carboxy-4-(13-carboxytridecanoylamino)butanoyl]amino]butanoyl]amino]ethoxy]ethoxy]acetyl]-[Aib8,Glu22,Arg26,Arg34,Lys36,Lys37]-GLP-1-(7-37)-peptide] | 1.3 | 18 | 0.47 | 4.08 | – | –
2 | CC[C@H](C)[C@H](NC(=O)[C@H](Cc1ccccc1)NC(=O)[C@H](CCC(=O)O)NC(=O)[C@H](CCCNC(=N)N)NC(=O)[C@H](C)NC(=O)[C@H](C)NC(=O)[C@H](CCC(N)=O)NC(=O)[C@H](CCC(=O)O)NC(=O)[C@H](CCC(=O)O)NC(=O)[C@H](CC(C)C)NC(=O)[C@H](Cc1ccc(O)cc1)NC(=O)[C@H](CO)NC(=O)[C@H](CO)NC(=O)[C@@H](NC(=O)[C@H](CC(=O)O)NC(=O)[C@H](CO)NC(=O)[C@@H](NC(=O)[C@H](Cc1ccccc1)NC(=O)[C@@H](NC(=O)CNC(=O)[C@H](CCC(=O)O)NC(=O)C(C)(C)NC(=O)[C@@H](N)Cc1c[nH]cn1)[C@@H](C)O)[C@@H](C)O)C(C)C)C(=O)N[C@@H](C)C(=O)N[C@@H](Cc1c[nH]c2ccccc12)C(=O)N[C@@H](CC(C)C)C(=O)N[C@H](C(=O)N[C@@H](CCCNC(=N)N)C(=O)NCC(=O)N[C@@H](CCCCNC(=O)COCCOCCNC(=O)COCCOCCNC(=O)COCCOCCNC(=O)CC[C@H](NC(=O)CCCCCCCCCCCCC(=O)O)C(=O)O)C(=O)N[C@@H](CCCCNC(=O)COCCOCCNC(=O)COCCOCCNC(=O)COCCOCCNC(=O)CC[C@H](NC(=O)CCCCCCCCCCCCC(=O)O)C(=O)O)C(=O)O)C(C)C [Example 12] | 1.2 | 10 | 0.2 | 3.33 | – | –
3 | CC[C@H](C)[C@H](NC(=O)[C@H](Cc1ccccc1)NC(=O)[C@H](CCC(=O)O)NC(=O)[C@H](CCCNC(=N)N)NC(=O)[C@H](C)NC(=O)[C@H](C)NC(=O)[C@H](CCC(N)=O)NC(=O)[C@H](CCC(=O)O)NC(=O)[C@H](CCC(=O)O)NC(=O)[C@H](CC(C)C)NC(=O)[C@H](Cc1ccc(O)cc1)NC(=O)[C@H](CO)NC(=O)[C@H](CO)NC(=O)[C@@H](NC(=O)[C@H](CC(=O)O)NC(=O)[C@H](CO)NC(=O)[C@@H](NC(=O)[C@H](Cc1ccccc1)NC(=O)[C@@H](NC(=O)CNC(=O)[C@H](CCC(=O)O)NC(=O)C(C)(C)NC(=O)[C@@H](N)Cc1c[nH]cn1)[C@@H](C)O)[C@@H](C)O)C(C)C)C(=O)N[C@@H](C)C(=O)N[C@@H](Cc1c[nH]c2ccccc12)C(=O)N[C@@H](CC(C)C)C(=O)N[C@H](C(=O)N[C@@H](CCCNC(=N)N)C(=O)NCC(=O)N[C@@H](CCCCNC(=O)COCCOCCNC(=O)COCCOCCNC(=O)CC[C@H](NC(=O)CCCCCCCCCOc1ccc(C(=O)O)cc1)C(=O)O)C(=O)N[C@@H](CCCCNC(=O)COCCOCCNC(=O)COCCOCCNC(=O)CC[C@H](NC(=O)CCCCCCCCCOc1ccc(C(=O)O)cc1)C(=O)O)C(=O)O)C(C)C [Example 3, N{Epsilon-36}-[2-[2-[2-[[2-[2-[2-[[(4S)-4-carboxy-4-[10-(4-carboxyphenoxy)decanoylamino]butanoyl]amino]ethoxy]ethoxy]acetyl]amino]ethoxy]ethoxy]acetyl], N{Epsilon-37}-[2-[2-[2-[[2-[2-[2-[[(4S)-4-carboxy-4-[10-(4-carboxyphenoxy)decanoylamino]butanoyl]amino]ethoxy]ethoxy]acetyl]amino]ethoxy]ethoxy]acetyl]-[Aib8,Glu22,Arg26,Arg34,Lys36,Lys37]-GLP-1-(7-37)-peptide] | – | 28 | – | 2.96 | 1.2 | 0.19
4 | CC[C@H](C)[C@H](NC(=O)[C@H](Cc1ccccc1)NC(=O)[C@H](CCC(=O)O)NC(=O)[C@H](CCCNC(=N)N)NC(=O)[C@H](C)NC(=O)[C@H](C)NC(=O)[C@H](CCC(N)=O)NC(=O)[C@H](CCC(=O)O)NC(=O)[C@H](CCC(=O)O)NC(=O)[C@H](CC(C)C)NC(=O)[C@H](Cc1ccc(O)cc1)NC(=O)[C@H](CO)NC(=O)[C@H](CO)NC(=O)[C@@H](NC(=O)[C@H](CC(=O)O)NC(=O)[C@H](CO)NC(=O)[C@@H](NC(=O)[C@H](Cc1ccccc1)NC(=O)[C@@H](NC(=O)CNC(=O)[C@H](CCC(=O)O)NC(=O)C(C)(C)NC(=O)[C@@H](N)Cc1c[nH]cn1)[C@@H](C)O)[C@@H](C)O)C(C)C)C(=O)N[C@@H](C)C(=O)N[C@@H](Cc1c[nH]c2ccccc12)C(=O)N[C@@H](CC(C)C)C(=O)N[C@H](C(=O)N[C@@H](CCCNC(=N)N)C(=O)NCC(=O)N[C@@H](CCCCNC(=O)COCCOCCNC(=O)COCCOCCNC(=O)CC[C@H](NC(=O)CCCCCCCCCCCOc1ccc(C(=O)O)cc1)C(=O)O)C(=O)N[C@@H](CCCCNC(=O)COCCOCCNC(=O)COCCOCCNC(=O)CC[C@H](NC(=O)CCCCCCCCCCCOc1ccc(C(=O)O)cc1)C(=O)O)C(=O)O)C(C)C [Example 26, N{Epsilon-36}-[2-[2-[2-[[2-[2-[2-[[(4S)-4-carboxy-4-[12-(4-carboxyphenoxy)dodecanoylamino]butanoyl]amino]ethoxy]ethoxy]acetyl]amino]ethoxy]ethoxy]acetyl], N{Epsilon-37}-[2-[2-[2-[[2-[2-[2-[[(4S)-4-carboxy-4-[12-(4-carboxyphenoxy)dodecanoylamino]butanoyl]amino]ethoxy]ethoxy]acetyl]amino]ethoxy]ethoxy]acetyl]-[Aib8,Glu22,Arg26,Arg34,Lys36,Lys37]-GLP-1-(7-37)-peptide] | – | 124 | – | – | 1.5 | 0.29
5 | CC[C@H](C)[C@H](NC(=O)[C@H](Cc1ccccc1)NC(=O)[C@H](CCC(=O)O)NC(=O)[C@H](CCCNC(=N)N)NC(=O)[C@H](C)NC(=O)[C@H](C)NC(=O)[C@H](CCC(N)=O)NC(=O)[C@H](CCC(=O)O)NC(=O)[C@H](CCC(=O)O)NC(=O)[C@H](CC(C)C)NC(=O)[C@H](Cc1ccc(O)cc1)NC(=O)[C@H](CO)NC(=O)[C@H](CO)NC(=O)[C@@H](NC(=O)[C@H](CC(=O)O)NC(=O)[C@H](CO)NC(=O)[C@@H](NC(=O)[C@H](Cc1ccccc1)NC(=O)[C@@H](NC(=O)CNC(=O)[C@H](CCC(=O)O)NC(=O)C(C)(C)NC(=O)[C@@H](N)Cc1c[nH]cn1)[C@@H](C)O)[C@@H](C)O)C(C)C)C(=O)N[C@@H](C)C(=O)N[C@@H](Cc1c[nH]c2ccccc12)C(=O)N[C@@H](CC(C)C)C(=O)N[C@H](C(=O)N[C@@H](CCCNC(=N)N)C(=O)NCC(=O)N[C@@H](CCCCNC(=O)COCCOCCNC(=O)COCCOCCNC(=O)CC[C@H](NC(=O)CCCCCCCCOc1cccc(C(=O)O)c1)C(=O)O)C(=O)N[C@@H](CCCCNC(=O)COCCOCCNC(=O)COCCOCCNC(=O)CC[C@H](NC(=O)CCCCCCCCOc1cccc(C(=O)O)c1)C(=O)O)C(=O)O)C(C)C [Example 23, N{Epsilon-36}-[2-[2-[2-[[2-[2-[2-[[(4S)-4-carboxy-4-[9-(3-carboxyphenoxy)nonanoylamino]butanoyl]amino]ethoxy]ethoxy]acetyl]amino]ethoxy]ethoxy]acetyl], N{Epsilon-37}-[2-[2-[2-[[2-[2-[2-[[(4S)-4-carboxy-4-[9-(3-carboxyphenoxy)nonanoylamino]butanoyl]amino]ethoxy]ethoxy]acetyl]amino]ethoxy]ethoxy]acetyl]-[Aib8,Glu22,Arg26,Arg34,Lys36,Lys37]-GLP-1-(7-37)-peptide] | – | 15 | – | – | 7.7 | 0.29
